The values that follow come from paper PMC12833730, “Discovery of a First‐in‐Class Covalent Allosteric SHP1 Inhibitor with Immunotherapeutic Activity” (Angewandte Chemie (International Ed. in English), 2025).

Bounds are passed on as bounds.

What all share (test): PTP panel IC50, 60-min preincubation
What all share (format): biochemical

The target of one assay is T1, MKP5 (Homo sapiens, UniProt Q9Y6W6).
T1 construct: MKP5, residues 320-647; made in house; host or cells: E. coli BL21(DE3)
From the text: (§1) Building on the results from the SAR “by‐catalog” study, the following medicinal chemistry effort was prioritized on a systematic survey of the central phenyl scaffold, the sulfonamide linker, and the distal aryl moiety with the goal of a multiparameter optimization of potency and selectivity for SHP1 inhibition as well as drug‐like properties such as aqueous solubility and cell permeability. Additionally, given the crucial requirement for targeted covalent inhibitors to maintain tempered reactivity that enables selective target engagement and reduces cross‐reactivity to by‐standing nucleophiles in the cellular milieu,^[ [74], [75] ^] the medicinal chemistry campaign also sought to lower SHP1 covalent inhibitor reactivity with GSH and cytotoxicity. Careful assessment and evaluation of the SAR and other desirable drug‐like attributes of all synthesized molecules led to the identification of M029 (Figure 2a and Figure S2D, manuscript in preparation). […] To determine the selectivity of M029 for SHP1, we measured the IC50 value for M029‐mediated inhibition of a number of PTPs after a 60‐min preincubation. […] To assess potential direct interactions between SHP1 and M029, we utilized the thermal shift assay to measure the thermal stability of SHP1 in the presence of M029. […] To corroborate the covalent interaction between SHP1 and M029, a single SHP1‐M029 covalent adduct was observed by electrospray protein mass spectrometry when SHP1 was incubated with M029 (Figure 2e). […] This is in line with the expectation that SHP1 inactivation by M029 occurs through nucleophilic substitution of the chlorine from the chloroacetamide warhead.
(§2) To further confirm the time-dependent inhibition and determine the IC50 of acquired hits, repurchased compounds from Enamine were serially diluted in a 96-well plate, followed by the addition of proteins at 200 nM. After 10-minute and 60-minute preincubation, 2 µL of the mixture was transferred into 100 µM 6,8-Difluoro-4-Methylumbelliferyl Phosphate (DiFMUP, Invitrogen, cat# D6567) at a final volume of 200 µL. The reaction was allowed to proceed for 5 minutes and quenched by the addition of 40 µl of a 160 µM solution of bpV(Phen) (Sigma-Aldrich, cat# SML0889). The fluorescence signal was measured using a CLARIOstar Plus Microplate Spectrophotometer (BMG Labtech) using excitation and emission wavelengths of 340 nm and 450 nm, respectively. Data were fitted using Prism GraphPad 10.1.1.

A further assay deals with T2, LMPTP (Homo sapiens, UniProt P24666).
T2 construct: LMWPTP, residues 1-158; made in house; host or cells: E. coli BL21(DE3)
T2 sequence (P24666 whole entry, the tested form may be a part): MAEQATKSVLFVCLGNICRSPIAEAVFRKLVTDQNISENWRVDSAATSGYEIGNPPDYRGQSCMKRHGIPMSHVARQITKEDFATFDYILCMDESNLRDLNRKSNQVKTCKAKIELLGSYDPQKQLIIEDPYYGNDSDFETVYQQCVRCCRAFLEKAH
From the text: as §1, §2

The next assay deals with T3, CDC14A (Homo sapiens, UniProt Q9UNH5).
T3 construct: CDC14A, residues 1-413; made in house; host or cells: E. coli BL21(DE3)
T3 sequence (Q9UNH5 1-413, species assumed): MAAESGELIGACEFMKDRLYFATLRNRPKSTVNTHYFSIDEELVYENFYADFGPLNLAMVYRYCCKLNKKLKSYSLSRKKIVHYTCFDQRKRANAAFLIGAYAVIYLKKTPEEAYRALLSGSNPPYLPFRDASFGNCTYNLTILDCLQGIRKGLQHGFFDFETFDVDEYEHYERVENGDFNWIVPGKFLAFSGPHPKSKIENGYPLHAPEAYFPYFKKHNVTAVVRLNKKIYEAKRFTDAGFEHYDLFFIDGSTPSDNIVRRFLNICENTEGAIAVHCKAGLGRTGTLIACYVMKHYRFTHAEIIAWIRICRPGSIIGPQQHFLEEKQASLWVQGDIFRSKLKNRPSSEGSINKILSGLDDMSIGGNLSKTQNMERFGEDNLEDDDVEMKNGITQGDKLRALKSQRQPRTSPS
From the text: as §1, §2

T1 sequence (Q9Y6W6 320-467 limits assumed, species assumed): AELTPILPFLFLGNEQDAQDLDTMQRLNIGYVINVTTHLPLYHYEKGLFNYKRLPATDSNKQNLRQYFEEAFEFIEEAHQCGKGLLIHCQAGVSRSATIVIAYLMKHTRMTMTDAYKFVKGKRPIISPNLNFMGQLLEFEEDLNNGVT

The term IC50 denotes the point on the concentration scale where inhibition reaches its midpoint. For `N#Cc1ccsc1NS(=O)(=O)c1ccc(NC(=O)CCl)cc1` [M029, 2-Chloro-N-(4-(N-(3-cyanothiophen-2-yl)sulfamoyl)phenyl)acetamide], the IC50 on MKP5 was 165 ± 20.1 µM; against LMPTP, more than 200 µM; against CDC14A, more than 200 µM.
